# Measurements reported in paper PMC5429603, “Discovery and characterization of verinurad, a potent and specific inhibitor of URAT1 for the treatment of hyperuricemia and gout” (Scientific Reports, 2017).
# Numbering of substitutions follows the chain as printed.
# How the values were obtained:
# Type in all cases: cell-based
# human URAT1 h-S27P = biological target: T1, human URAT1 h-S27P (Homo sapiens, UniProt Q96S37, S27P); test: URAT1 activity assay, h-S27P
# T1 construct: expressed in transfected cells; host or cells: HEK-293T
# Source text: (§1) Human URAT1 (GenBank BC053348.1, Homo sapiens SLC22A12), rat URAT1 (NCBI NM_001034943.1, Rattus norvegicus Slc22a12) and human OAT4 (NCBI NM_018484.2, Homo sapiens SLC22A11) genes were purchased from Origene Technologies, Inc. and subcloned into pCMV6/neo using NotI. Where indicated, controls transfections used pCMV6/neo. Mutants were produced by site-directed mutagenesis using the QuikChange Lightning Multi Site-Directed Mutagenesis Kit (Agilent Technologies). […] Mutagenic primer sequences are provided in ref. [15] and mutagenic primer sequences for previously unreported mutants shown in Supplementary Table 1. All constructs used in this study were untagged. Human OAT1 was purchased from Fisher Scientific (catalog # MHS1010–7508183 in pSPORT6, NCBI NM_153276.2, Homo sapiens SLC22A6).
# HEK-293T cells were maintained in DMEM/high glucose/L-glutamine/HEPES supplemented with 1 mM sodium pyruvate (Life Technologies) and 10% FBS (PAA Laboratories) at 37 °C in 5% CO2. […]
# (§2) URAT1 and OAT4 activity assays were performed in assay buffer consisting of 25 mM MES pH 5.5 (from a 1 M MES solution [Sigma] adjusted to pH 5.5 with sodium hydroxide), 125 mM sodium gluconate, 4.8 mM potassium gluconate, 1.2 mM monobasic potassium phosphate, 1.2 mM magnesium sulfate, 1.3 mM calcium gluconate and 5.6 mM glucose. […] Each treatment was measured in triplicate.
# [1] = biological target: T2, rat URAT1 r-N35S/Y365F/M481I (Rattus norvegicus, UniProt Q3ZAV1, M481I/N35S/Y365F); test: URAT1 activity assay, r-N35S/Y365F/M481I
# T2 construct: expressed in transfected cells; host or cells: HEK-293T
# T2 sequence (Q3ZAV1 1-553 N35S/Y365F/M481I): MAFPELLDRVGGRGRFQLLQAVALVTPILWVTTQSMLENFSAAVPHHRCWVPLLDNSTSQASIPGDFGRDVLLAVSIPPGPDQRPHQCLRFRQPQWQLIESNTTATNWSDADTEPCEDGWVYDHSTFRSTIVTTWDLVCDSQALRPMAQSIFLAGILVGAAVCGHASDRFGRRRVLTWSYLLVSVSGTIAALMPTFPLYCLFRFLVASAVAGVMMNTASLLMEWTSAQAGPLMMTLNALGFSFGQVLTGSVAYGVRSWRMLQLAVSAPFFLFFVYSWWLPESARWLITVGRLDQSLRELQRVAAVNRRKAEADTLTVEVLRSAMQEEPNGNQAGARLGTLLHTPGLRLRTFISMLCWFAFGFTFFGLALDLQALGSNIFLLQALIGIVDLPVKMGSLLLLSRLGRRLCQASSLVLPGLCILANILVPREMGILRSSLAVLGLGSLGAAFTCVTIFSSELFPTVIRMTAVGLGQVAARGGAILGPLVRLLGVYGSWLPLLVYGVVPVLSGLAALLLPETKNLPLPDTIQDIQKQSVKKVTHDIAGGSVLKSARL
# Source text: as §1
# (§3) HEK-293T cells were maintained in DMEM/high glucose/L-glutamine/HEPES supplemented with 1 mM sodium pyruvate (Life Technologies) and 10% FBS (PAA Laboratories) at 37 °C in 5% CO2. To express URAT1, OAT4 or OAT1, plasmids were reverse transfected into HEK-293T cells. DNA (10 µg) was mixed with 30 µl of DreamFect Gold (Boca Scientific) in 2 ml OptiMem (Life Technologies). After 20 minutes, 18 ml of media containing 2 × 10^7 cells in suspension was added and mixed, and 200 µl per well were plated onto white clear-bottomed poly-D-lysine coated 96-well plates (BD Biosciences). The cells were assayed the following day.
# as §2, with “glucose. URAT1 inhibitors were serially diluted into assay buffer and added to the cells for 5 minutes prior to addition of substrate. URAT1-expressing cells were incubated with 100 µM ^14C-uric acid for 10 minutes and OAT4-expressing cells were incubated with 20 µM carboxyfluorescein (Life Technologies, Inc.) for 5 minutes.” for “glucose.”
# human URAT1 h-F241Y = biological target: T3, human URAT1 h-F241Y (Homo sapiens, UniProt Q96S37, F241Y); test: URAT1 activity assay, h-F241Y
# T3 construct: expressed in transfected cells; host or cells: HEK-293T
# T3 sequence (Q96S37 1-553 F241Y): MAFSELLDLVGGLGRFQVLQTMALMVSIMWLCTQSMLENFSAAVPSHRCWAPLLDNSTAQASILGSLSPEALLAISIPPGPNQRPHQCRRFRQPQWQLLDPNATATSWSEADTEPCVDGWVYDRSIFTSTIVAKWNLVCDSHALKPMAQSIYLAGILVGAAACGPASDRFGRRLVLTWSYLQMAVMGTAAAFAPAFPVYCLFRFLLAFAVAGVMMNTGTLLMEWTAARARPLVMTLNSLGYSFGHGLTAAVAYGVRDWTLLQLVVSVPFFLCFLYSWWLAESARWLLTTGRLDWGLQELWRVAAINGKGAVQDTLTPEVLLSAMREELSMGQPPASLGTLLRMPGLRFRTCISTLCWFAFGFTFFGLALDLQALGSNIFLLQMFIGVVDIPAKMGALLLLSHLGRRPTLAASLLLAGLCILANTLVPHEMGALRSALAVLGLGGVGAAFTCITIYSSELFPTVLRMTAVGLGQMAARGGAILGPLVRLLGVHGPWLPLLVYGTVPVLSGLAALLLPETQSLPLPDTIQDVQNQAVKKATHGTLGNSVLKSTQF
# Source text: as §1, §3
# (§4) URAT1 and OAT4 activity assays were performed in assay buffer consisting of 25 mM MES pH 5.5 (from a 1 M MES solution [Sigma] adjusted to pH 5.5 with sodium hydroxide), 125 mM sodium gluconate, 4.8 mM potassium gluconate, 1.2 mM monobasic potassium phosphate, 1.2 mM magnesium sulfate, 1.3 mM calcium gluconate and 5.6 mM glucose. URAT1 inhibitors were serially diluted into assay buffer and added to the cells for 5 minutes prior to addition of substrate. URAT1-expressing cells were incubated with 100 µM ^14C-uric acid for 10 minutes and OAT4-expressing cells were incubated with 20 µM carboxyfluorescein (Life Technologies, Inc.) for 5 minutes. Cells were then washed three times in 25 mM MES pH 5.5/125 mM sodium gluconate, and solubilized in Ultima Gold (Perkin Elmer) prior to liquid scintillation counting. Each treatment was measured in triplicate.
# human URAT1 h-R477K = biological target: T4, human URAT1 h-R477K (Homo sapiens, UniProt Q96S37, R477K); test: URAT1 activity assay, h-R477K
# T4 construct: expressed in transfected cells; host or cells: HEK-293T
# T4 sequence (Q96S37 1-553 R477K): T3 sequence (Q96S37 1-553 F241Y) with Y241F, R477K
# Source text: as §1, §3, §4
# T1 sequence (Q96S37 whole entry S27P): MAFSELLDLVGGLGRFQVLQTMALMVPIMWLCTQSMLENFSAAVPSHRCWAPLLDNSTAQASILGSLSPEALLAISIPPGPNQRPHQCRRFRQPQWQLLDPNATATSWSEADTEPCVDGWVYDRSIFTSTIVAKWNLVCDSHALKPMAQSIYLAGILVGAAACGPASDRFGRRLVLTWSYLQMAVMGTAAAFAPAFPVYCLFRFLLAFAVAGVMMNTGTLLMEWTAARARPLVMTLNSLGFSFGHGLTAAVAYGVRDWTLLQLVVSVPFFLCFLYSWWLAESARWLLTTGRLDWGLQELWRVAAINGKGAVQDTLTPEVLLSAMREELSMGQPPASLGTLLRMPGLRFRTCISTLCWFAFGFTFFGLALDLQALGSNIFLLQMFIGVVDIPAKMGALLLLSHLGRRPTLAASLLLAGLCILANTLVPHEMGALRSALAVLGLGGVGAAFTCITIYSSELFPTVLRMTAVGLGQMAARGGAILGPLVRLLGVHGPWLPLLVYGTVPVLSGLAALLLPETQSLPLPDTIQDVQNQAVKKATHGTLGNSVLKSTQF
smiles,measurement,setting,value
"CC(C)(Sc1ccncc1-c1ccc(C#N)c2ccccc12)C(=O)O [Verinurad, 2-((3-(4-cyanonaphthalen-1-yl)pyrindin-4-yl)thio)-2-methylpropanoic acid]",fold decrease in affinity,human URAT1 h-S27P; h-S27P vs human URAT1,1.6 fold
same,IC50,"human URAT1 h-S27P; h-S27P, TM1 point mutant, read-out: Verinurad affinity (IC50)",39 ± 9 nM
same,fold higher affinity compared to rat URAT1,[1]; r-N35S/Y365F/M481I,~300 fold
same,fold lower affinity compared to human URAT1,[1]; r-N35S/Y365F/M481I,6 fold
same,IC50,[1]; r-N35S/Y365F/M481I triple point mutant,140 nM
same,fold reduced affinity compared to human URAT1,human URAT1 h-F241Y; h-F241Y,5 fold
same,IC50,human URAT1 h-F241Y; h-F241Y binding site point mutant,120 nM
same,fold reduced affinity compared to human URAT1,human URAT1 h-R477K; h-R477K,9 fold
same,IC50,human URAT1 h-R477K; h-R477K binding site point mutant,230 nM
